Measured values as given in patent US20250326753A1, “DUAL CXCR4-BTK INHIBITORS” (X4 Pharmaceuticals, Inc., priority 2022, published 2025).
Like-named read-outs stand apart in the source and are kept apart here.

Assays:
[1] = biological target: T1, TXK (Homo sapiens, UniProt P42681); assay: PanQinase kinase panel: TXK; type: biochemical; conditions: read-out: INHIBITORY EFFECT @ 1 uM: TXK
T1 construct: purchased Reaction Biology Europe GmbH
T1 sequence (P42681 1-527): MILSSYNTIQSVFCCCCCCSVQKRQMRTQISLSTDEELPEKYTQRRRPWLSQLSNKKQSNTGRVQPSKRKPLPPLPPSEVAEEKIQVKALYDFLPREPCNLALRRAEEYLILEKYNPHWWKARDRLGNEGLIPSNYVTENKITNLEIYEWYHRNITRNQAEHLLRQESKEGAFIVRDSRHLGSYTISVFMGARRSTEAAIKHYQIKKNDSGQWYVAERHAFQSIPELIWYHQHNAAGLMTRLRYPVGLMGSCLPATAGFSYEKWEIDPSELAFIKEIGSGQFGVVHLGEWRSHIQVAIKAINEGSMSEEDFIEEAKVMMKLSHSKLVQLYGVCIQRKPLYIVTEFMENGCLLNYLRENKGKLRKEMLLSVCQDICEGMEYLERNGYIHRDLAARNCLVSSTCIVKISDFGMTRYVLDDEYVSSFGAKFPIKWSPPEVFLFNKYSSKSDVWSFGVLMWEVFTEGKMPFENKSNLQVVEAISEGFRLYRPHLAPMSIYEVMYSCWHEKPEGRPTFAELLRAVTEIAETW
Method: (§1) Screening procedures were performed in accordance with the company's on-line protocol [accessed on-line Mar.
(§2) For each kinase, the median value of the cpm of three wells was defined as “low control” (n=3). This value reflects unspecific binding of radioactivity to the plate in the absence of a protein kinase but in the presence of the substrate. Additionally, for each kinase the median value of the cpm of three other wells was taken as the “high control,” i.e. full activity in the absence of any inhibitor (n=3). The difference between high and low control of each enzyme was taken as 100% activity.
(§3) As part of the data evaluation the low control of each kinase was subtracted from the high control value as well as from their corresponding “compound values”. The residual activity (in %) for each compound well was calculated by using the following formula: Res. Activity (%)=100×[(signal of compound−low control)/(high control−low control)].

[2] = biological target: T2, SRMS (Homo sapiens, UniProt Q9H3Y6); assay: PanQinase kinase panel: SRMS; type: biochemical; conditions: read-out: INHIBITORY EFFECT @ 1 uM: SRMS
T2 construct: purchased Reaction Biology Europe GmbH
T2 sequence (Q9H3Y6 whole entry): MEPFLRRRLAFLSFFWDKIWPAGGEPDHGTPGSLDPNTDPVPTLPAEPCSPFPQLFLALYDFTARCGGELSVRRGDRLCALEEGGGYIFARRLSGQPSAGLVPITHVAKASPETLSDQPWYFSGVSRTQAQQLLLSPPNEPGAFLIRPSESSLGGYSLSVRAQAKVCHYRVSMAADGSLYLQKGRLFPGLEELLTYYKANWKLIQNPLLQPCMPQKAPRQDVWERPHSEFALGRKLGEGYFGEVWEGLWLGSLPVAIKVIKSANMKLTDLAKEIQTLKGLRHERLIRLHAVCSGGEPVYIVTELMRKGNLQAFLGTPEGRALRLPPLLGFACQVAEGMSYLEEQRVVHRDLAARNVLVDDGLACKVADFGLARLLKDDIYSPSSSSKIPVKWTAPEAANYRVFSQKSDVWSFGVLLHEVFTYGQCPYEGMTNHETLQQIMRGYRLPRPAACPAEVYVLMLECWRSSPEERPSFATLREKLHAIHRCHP
Method: as §1, §2, §3

[3] = biological target: T3, FES (Homo sapiens, UniProt P07332); assay: PanQinase kinase panel: FES; type: biochemical; conditions: read-out: INHIBITORY EFFECT @ 1 uM: FES
T3 construct: purchased Reaction Biology Europe GmbH
T3 sequence (P07332 whole entry): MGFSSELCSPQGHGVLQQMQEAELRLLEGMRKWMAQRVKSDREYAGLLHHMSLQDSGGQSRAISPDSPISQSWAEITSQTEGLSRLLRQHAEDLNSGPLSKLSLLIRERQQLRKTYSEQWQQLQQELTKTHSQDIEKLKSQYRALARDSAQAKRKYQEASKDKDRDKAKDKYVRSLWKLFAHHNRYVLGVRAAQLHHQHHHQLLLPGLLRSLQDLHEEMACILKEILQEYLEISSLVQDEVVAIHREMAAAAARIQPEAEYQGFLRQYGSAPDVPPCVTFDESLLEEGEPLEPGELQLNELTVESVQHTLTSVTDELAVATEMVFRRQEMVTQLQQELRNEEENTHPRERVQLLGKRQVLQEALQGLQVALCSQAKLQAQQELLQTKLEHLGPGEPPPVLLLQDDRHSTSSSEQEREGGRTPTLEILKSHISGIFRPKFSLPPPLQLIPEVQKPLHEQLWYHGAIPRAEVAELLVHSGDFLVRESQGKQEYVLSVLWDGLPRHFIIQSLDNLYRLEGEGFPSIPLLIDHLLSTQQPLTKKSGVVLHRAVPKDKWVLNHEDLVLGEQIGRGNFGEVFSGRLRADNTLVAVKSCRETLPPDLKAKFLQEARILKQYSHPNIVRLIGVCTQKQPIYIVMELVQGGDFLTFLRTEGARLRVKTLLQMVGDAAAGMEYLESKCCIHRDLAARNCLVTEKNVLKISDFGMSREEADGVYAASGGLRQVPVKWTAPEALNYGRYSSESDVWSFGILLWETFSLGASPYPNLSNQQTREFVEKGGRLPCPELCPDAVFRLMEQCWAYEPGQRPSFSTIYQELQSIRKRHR
Method: as §1, §2, §3

[4] = test system: GBM-U251MG; assay: GBM cell proliferation, U251MG (cell-based cancer efficacy assays); conditions: Homo sapiens, U-251; Table 6B
[5] = biological target: T4, FYN (Homo sapiens, UniProt P06241); assay: PanQinase kinase panel: FYN; type: biochemical; conditions: read-out: INHIBITORY EFFECT @ 1 uM: FYN
T4 construct: purchased Reaction Biology Europe GmbH
T4 sequence (P06241 whole entry): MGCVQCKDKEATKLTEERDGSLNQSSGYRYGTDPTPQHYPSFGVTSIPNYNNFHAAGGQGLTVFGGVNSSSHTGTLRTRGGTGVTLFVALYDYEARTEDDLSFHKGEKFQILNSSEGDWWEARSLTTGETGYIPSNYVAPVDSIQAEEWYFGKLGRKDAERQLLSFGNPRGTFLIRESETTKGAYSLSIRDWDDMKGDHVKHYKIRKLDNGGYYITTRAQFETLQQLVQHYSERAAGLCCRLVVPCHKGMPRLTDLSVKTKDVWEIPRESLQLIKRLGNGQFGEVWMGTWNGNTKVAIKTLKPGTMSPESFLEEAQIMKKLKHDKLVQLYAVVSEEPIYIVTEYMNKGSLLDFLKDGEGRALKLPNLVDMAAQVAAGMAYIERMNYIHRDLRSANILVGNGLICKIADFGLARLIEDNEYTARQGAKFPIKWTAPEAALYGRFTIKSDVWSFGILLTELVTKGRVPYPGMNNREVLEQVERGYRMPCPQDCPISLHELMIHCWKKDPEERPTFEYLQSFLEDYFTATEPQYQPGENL
Method: as §1, §2, §3

[6] = biological target: T5, SRC (Homo sapiens, UniProt P12931); assay: PanQinase kinase panel: SRC; type: biochemical; conditions: read-out: INHIBITORY EFFECT @ 1 uM: SRC
T5 construct: purchased Reaction Biology Europe GmbH
T5 sequence (P12931 whole entry): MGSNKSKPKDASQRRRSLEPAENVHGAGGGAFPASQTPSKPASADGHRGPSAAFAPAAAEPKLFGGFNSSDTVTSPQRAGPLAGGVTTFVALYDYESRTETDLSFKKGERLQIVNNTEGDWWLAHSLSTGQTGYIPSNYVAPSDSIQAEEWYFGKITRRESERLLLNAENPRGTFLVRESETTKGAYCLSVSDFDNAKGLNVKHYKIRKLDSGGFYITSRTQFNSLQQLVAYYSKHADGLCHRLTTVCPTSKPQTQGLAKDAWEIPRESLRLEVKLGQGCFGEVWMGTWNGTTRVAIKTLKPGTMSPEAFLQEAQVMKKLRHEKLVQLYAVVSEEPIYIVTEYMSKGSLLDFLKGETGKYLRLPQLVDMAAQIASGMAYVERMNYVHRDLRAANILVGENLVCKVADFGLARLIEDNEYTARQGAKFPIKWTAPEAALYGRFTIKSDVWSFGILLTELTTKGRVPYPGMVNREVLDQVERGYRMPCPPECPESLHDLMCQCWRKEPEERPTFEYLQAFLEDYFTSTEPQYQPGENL
Method: as §1, §2
(§4) As part of the data evaluation the low control of each kinase was subtracted from the high control value as well as from their corresponding “compound values”.

[7] = biological target: T6, YES (Homo sapiens, UniProt P07947); assay: PanQinase kinase panel: YES; type: biochemical; conditions: read-out: INHIBITORY EFFECT @ 1 uM: YES
T6 construct: purchased Reaction Biology Europe GmbH
T6 sequence (P07947 whole entry): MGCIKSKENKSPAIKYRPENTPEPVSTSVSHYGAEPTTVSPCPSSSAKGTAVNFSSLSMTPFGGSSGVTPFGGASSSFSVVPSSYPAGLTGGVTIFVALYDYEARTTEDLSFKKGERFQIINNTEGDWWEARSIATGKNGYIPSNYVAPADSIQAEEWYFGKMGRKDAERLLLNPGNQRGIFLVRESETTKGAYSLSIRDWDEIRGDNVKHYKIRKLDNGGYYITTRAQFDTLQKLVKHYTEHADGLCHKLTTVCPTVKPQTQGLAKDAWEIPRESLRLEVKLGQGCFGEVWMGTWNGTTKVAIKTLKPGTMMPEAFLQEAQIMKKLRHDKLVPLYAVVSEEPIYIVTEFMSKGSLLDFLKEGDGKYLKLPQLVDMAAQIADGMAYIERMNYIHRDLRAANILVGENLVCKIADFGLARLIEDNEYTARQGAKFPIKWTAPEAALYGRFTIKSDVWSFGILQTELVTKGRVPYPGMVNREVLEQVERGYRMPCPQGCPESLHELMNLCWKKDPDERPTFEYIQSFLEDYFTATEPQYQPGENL
Method: as §1, §2, §4

[8] = biological target: T7, CDK13/CycK (Homo sapiens, UniProt Q14004); assay: PanQinase kinase panel: CDK13/CycK; type: biochemical
T7 construct: purchased Reaction Biology Europe GmbH
T7 sequence (Q14004 whole entry): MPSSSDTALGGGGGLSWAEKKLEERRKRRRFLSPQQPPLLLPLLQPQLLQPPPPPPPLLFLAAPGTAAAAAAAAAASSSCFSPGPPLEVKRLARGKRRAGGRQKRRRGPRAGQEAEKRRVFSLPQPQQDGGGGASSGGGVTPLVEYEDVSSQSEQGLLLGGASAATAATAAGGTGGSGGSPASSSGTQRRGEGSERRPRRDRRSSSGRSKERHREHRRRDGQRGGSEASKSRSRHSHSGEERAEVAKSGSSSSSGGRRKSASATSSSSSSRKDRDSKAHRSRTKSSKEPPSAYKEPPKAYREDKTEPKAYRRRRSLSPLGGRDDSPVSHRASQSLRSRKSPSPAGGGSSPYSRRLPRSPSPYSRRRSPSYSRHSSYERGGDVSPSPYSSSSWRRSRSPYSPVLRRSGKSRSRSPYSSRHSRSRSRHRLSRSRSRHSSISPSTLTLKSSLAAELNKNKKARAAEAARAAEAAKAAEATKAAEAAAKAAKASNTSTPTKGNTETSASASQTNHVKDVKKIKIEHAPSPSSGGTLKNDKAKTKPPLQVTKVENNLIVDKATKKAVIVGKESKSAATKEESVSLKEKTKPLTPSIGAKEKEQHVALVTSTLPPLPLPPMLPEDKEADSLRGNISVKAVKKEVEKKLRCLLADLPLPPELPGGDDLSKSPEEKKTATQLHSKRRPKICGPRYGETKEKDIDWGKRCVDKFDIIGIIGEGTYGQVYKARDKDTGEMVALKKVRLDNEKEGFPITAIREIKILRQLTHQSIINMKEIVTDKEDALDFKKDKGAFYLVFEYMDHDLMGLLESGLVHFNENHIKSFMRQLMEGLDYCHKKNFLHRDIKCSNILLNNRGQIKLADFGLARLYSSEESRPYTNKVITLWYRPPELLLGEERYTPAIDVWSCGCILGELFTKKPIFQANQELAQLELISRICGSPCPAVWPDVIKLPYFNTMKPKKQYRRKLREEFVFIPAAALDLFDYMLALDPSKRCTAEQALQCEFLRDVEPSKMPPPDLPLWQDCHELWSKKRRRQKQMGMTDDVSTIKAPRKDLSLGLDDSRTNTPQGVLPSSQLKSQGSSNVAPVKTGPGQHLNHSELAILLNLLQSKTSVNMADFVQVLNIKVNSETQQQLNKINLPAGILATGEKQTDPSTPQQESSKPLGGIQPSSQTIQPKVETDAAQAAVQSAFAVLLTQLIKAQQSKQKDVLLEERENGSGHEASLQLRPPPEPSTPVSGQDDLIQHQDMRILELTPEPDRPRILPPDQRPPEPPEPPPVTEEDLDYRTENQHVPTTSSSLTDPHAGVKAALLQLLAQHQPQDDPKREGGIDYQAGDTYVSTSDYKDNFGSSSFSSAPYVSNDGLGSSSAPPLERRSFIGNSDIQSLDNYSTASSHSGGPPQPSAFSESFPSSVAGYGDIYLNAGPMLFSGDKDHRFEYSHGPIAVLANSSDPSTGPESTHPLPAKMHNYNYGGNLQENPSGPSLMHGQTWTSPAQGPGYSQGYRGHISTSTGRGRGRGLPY
T7 sequence (O75909 whole entry partner): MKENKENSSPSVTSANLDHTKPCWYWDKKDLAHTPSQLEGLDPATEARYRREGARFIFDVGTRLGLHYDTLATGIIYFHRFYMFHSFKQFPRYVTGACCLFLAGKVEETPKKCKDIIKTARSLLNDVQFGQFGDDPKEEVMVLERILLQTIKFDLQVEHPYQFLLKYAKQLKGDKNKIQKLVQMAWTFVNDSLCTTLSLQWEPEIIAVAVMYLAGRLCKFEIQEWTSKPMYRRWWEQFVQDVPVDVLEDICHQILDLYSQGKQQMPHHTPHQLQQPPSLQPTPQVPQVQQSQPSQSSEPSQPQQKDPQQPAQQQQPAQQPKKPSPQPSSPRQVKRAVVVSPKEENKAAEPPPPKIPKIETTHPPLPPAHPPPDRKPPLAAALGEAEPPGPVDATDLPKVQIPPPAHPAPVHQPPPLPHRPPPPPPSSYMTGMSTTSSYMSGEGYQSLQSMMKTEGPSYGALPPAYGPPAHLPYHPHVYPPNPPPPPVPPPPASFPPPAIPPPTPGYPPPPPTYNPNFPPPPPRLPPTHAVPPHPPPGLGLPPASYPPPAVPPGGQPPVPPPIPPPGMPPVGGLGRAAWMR
Method: Screening procedures were performed in accordance with the company's on-line protocol [accessed on-line Mar. 25, 2022 at reaction biology.com/assay-protocol-panqinase]. Inhibitory activity of 50% or greater at concentrations of 1 μM are highlighted for all five compounds tested.
as §2, §3

[9] = read-out: INHIBITORY EFFECT @ 1 uM: CDK13/CycK

O=C(c1ccc(Oc2ccccc2)cc1Cl)c1c[nH]c2ncnc(N[C@@H]3CC[C@@H](CO)OC3)c12 [ARQ-531, (2-chloro-4-phenoxyphenyl) (4-(((3R,6S)-6-(hydroxymethyl)tetrahydro-2H-pyran-3-yl)amino)-7H-pyrrolo[2,3-d]pyrimidin-5-yl) methanone]
inhibition at 1 µM [1]: 90 to 100%
inhibition at 1 µM [2]: 90 to 100%
inhibition at 1 µM [3]: 50 to 69%

Cc1cccnc1[C@H]1CCC[C@@H](c2ncccc2C)N1CCN1CCN(C(=O)c2ccc(-c3cc4c(-c5cccc(NC(=O)c6ccccc6)c5C)ncnc4[nH]3)cc2)CC1 [Compound I-10, N-(3-(6-(4-(4-(2-((2R,6S)-2,6-bis(3-methylpyridin-2-yl)piperidin-1-yl)ethyl)piperazine-1-carbonyl)phenyl)-7H-pyrrolo[2,3-d]pyrimidin-4-yl)-2-methylphenyl)benzamide]
Emax [4]: 98%
IC50 [4]: 2120 nM
inhibition at 1 µM [1]: < 50%
inhibition at 1 µM [5]: < 50%
inhibition at 1 µM [6]: < 50%
inhibition at 1 µM [2]: < 50%
inhibition at 1 µM [7]: < 50%
inhibition at 1 µM ([8]; at 1 μM, read-out: inhibition of CDK13/CycK): 50 to 89%
inhibition at 1 µM [8, 9]: 50 to 69%
inhibition at 1 µM [3]: < 50%

Cc1cc(-c2ccnc(Nc3cnn(CCN4[C@@H](c5ncccc5C)CCC[C@H]4c4ncccc4C)c3)n2)ccc1CNC(=O)N1CC(OC(C)C)C1 [Compound I-11]
Emax [4]: 82%
IC50 [4]: 930 nM

COc1ccc(F)cc1C(=O)NCc1ccc(-c2nn([C@@H](C)C(F)(F)F)c(N)c2C(N)=O)cc1 [LOXO-305, pirtobrutinib]
inhibition at 1 µM [1]: 50 to 69%
inhibition at 1 µM [5]: < 50%
inhibition at 1 µM [6]: < 50%
inhibition at 1 µM [2]: < 50%
inhibition at 1 µM [7]: < 50%
inhibition at 1 µM [8, 9]: < 50%
inhibition at 1 µM [3]: < 50%

C=CC(=O)N1CCC([C@@H]2CCNc3c(C(N)=O)c(-c4ccc(Oc5ccccc5)cc4)nn32)CC1 [Zanubrutinib, (7S)-2-(4-phenoxyphenyl)-7-(1-prop-2-enoylpiperidin-4-yl)-4,5,6,7-tetrahydropyrazolo[1,5-a]pyrimidine-3-carboxamide]
inhibition at 1 µM [1]: 90 to 100%
inhibition at 1 µM [2]: < 50%
inhibition at 1 µM [8, 9]: < 50%
inhibition at 1 µM [3]: < 50%
